Results taken from publication PMC5454942, “The Potential of Triterpenoids from Loquat Leaves (Eriobotrya japonica) for Prevention and Treatment of Skin Disorder” (International Journal of Molecular Sciences, 2017).
Values after ≈ are worked out from the molar mass of the structure shown. Values joined by “and” are separate entries in the source; they are usually repeats but may differ in a detail not shown here. Equal entries are not always repeated. Where two headings read alike, the source gives them in different places.

Columns and labels:
[1] = tested on: B16 melanoma cells; test: Cell viability of B16 melanoma cells (MTT); conditions: for Inhibition rate (100% − cell viability): B16 cells; for CC50 cell viability / CC50: B16 melanoma cells, MTT; for CC50: read-out: CC50 (cell viability)
Protocol: (§1) This assay was performed as described by Arung et al.. The mouse melanoma cell line B16 was obtained from the Riken Bioresource Center Cell Bank (Tsukuba, Japan). The B16 melanoma cells were maintained in Eagle’s Minimal Essential Medium (EMEM, Nissui Chemical, Tokyo) supplemented with 10% (v/v) fetal bovine serum (FBS; Gibco, Carlsbad, CA, USA) and 0.09 mg/mL theophylline (Sigma-Aldrich, St. Louis, MO, USA). […] After 24 h, test samples were dissolved in DMSO (<0.2% per well) and sample solution were added to each well. Arbutin (Tokyo Kasei Kogyo, Tokyo) was used as a positive control. The cells were incubated for an additional 48 h, and then the medium was replaced with fresh medium containing each sample again. After 24 h, the melanin content and the cell viability were measured using a microplate reader (BioTek-ELX800, BioTek Instruments, Winooski, VT, USA) at 405 nm and 570 nm, respectively. Cell viability was measured using the MTT (3-(4,5-dimethylthiazol-2-yl)-2,5-diphenyltetrazolium bromide) method.

[2] = in vitro; conditions: mouse
Protocol: as §1

[3] = tested on: B16 melanoma cells; test: Anti-melanogenesis assay (melanin content); assay type: cell-based, mouse; conditions: for Inhibition rate (100% − melanin synthesis): B16 cells
Protocol: as §1

[4] = Cell viability of RBL-2H3 cells (parallel MTT); assay type: cell-based, rat; conditions: rat
Protocol: (§2) The anti-allergy assay was based mostly on the methods described by Zhu et al. and Yun et al. with slight modification. Rat basophilic leukemia (RBL-2H3) cells were obtained from the Riken Bio-resource Center Cell Bank (Tsukuba, Japan). RBL-2H3 cells were incubated in EMEM medium containing 10% FBS and 1% antibiotics–antimycotics at 37 °C. The cells were seeded on a 96-well plate (2 × 10^5 cells/well). After 24 h of incubation, the medium was supplemented with 0.5 μg/mL anti-DNP (dinitrophenol) mouse immunoglobulin E (IgE) (Sigma-Aldrich). After an additional 24 h of incubation, the medium was replaced with 100 μL of Tyrode buffer. The sample dissolved in DMSO (<0.5% per well) was added, and the cell plate was incubated again for 30 min, then replaced with 100 μL of tyrode buffer containing 50 μg/mL DNP-bovine serum albumin (BSA) (Invitrogen, Carlsbad, CA, USA). After 1 h of incubation, 50 μL of the supernatant was collected from each well and mixed with 50 μL of substrate solution (p-nitrophenyl-N-acetyl-β-glucosaminide, 2 mM; Sigma-Aldrich) in a new 96-well plate. The mixture was incubated at room temperature on a shaker for 3 h. Finally, 100 μL of stop solution was added, and the absorbance was read at 405 nm. A parallel MTT experiment was performed to measure the cell viability. The MTT experiment was done exactly as described.

[5] = tested on: Propionibacterium acnes; test: Anti-bacterial assay (growth inhibition, MIC/MBC by broth microdilution); assay type: cell-based; conditions: for activity against P. acnes (in words): at their maximum solubility; for Inhibition Rate (P. acnes growth): concentration 100 μg/mL
Protocol: The antibacterial assay was based mostly on the methods described by Tanaka et al. with slight modification. Propionibacterium acne (NBRC 107605) was used for the antibacterial assay. A single colony of the test strain was taken and 5 mL of Gifu anaerobic medium (GAM) broth (Nissui, Tokyo) was added to it. This culture was incubated at 37 °C for 30 h. It was then added to the bacterial suspension to prepare a bacterial concentration at 10^5 CFU/mL. The bacterial solution was used for the subsequent antibacterial assay. Each compound was dissolved in DMSO, and benzalkonium chloride (Wako) was used as a positive control. The plate was incubated at 37 °C for 30 h. Finally, bacterial growth was measured by a microplate reader at 630 nm. The MIC and MBC were evaluated by the standard broth microdilution method.

[6] = tested on: RBL-2H3 cells; test: β-hexosaminidase release from IgE-stimulated RBL-2H3 mast cells; assay type: cell-based, rat; conditions: Rattus norvegicus, RBL-2H3; 82 μM, positive control; read-out: inhibition rate of β-hexosaminidase release
Protocol: as §2

[7] = tested on: RBL-2H3 cells; test: Cell viability of RBL-2H3 cells (parallel MTT); assay type: cell-based, rat; conditions: 25 μg/ml, RBL-2H3 cells
Protocol: as §2

[8] = tested on: NHDF cells; test: Skin type I collagen synthesis promoting assay (ELISA, with MTT); assay type: cell-based, human; conditions: fold of control
Protocol: The assay for measuring the promotion of skin collagen synthesis was described by Kishikawa et al.. Adult NHDF cells (Lonza, Tokyo) were routinely maintained in 10% FBS and 1% antibiotic-antimycotic (Invitrogen) in Dulbecco’s modified Eagle’s medium (DMEM, Wako). After growing to confluence, cells at a density of 5 × 10^3 cells/well were seeded on 96-well plates for 24 h before the treatment. The medium was replaced with a mixture of 1 μL of sample solution (DMSO < 0.5% per well) and 99 μL of DMEM supplemented with 0.5% FBS. After 72 h of cultivation, the amount of collagen in the medium was measured using a human type I collagen enzyme-linked immunosorbent assay (ELISA) kit (ACEL, Kanagawa, Japan). The amount of collagen production was calculated using a standard curve prepared by measurement by the same ELISA. The cells remaining in the 96-well plate were subjected to an MTT assay. Ascorbic acid (100 μM, Wako) was used as a positive control.

[9] = Mus musculus, B16, read-out: Inhibition rate (100% − melanin synthesis)
[10] = B16 melanoma cells, read-out: IC50 (melanin synthesis)

Compound	Inhibition rate (100% − cell viability) ([1]; 1 μg/ml) [%]	Inhibition rate (100% − cell viability) ([1]; 2.5 μg/ml) [%]	Inhibition rate (100% − cell viability) ([1]; 5 μg/ml) [%]	Inhibition rate (100% − cell viability) ([1]; 10 μg/ml) [%]	activity against P. acnes (in words) [5]	CC50 cell viability [1] [µg/mL]	CC50 [1] [µM]	Inhibition rate (100% − melanin synthesis) ([3]; 1 μg/ml) [%]	Inhibition rate (100% − melanin synthesis) ([3]; 2.5 μg/ml) [%]	Inhibition rate (100% − melanin synthesis) ([3]; 5 μg/ml) [%]	Inhibition rate (100% − melanin synthesis) ([3]; 10 μg/ml) [%]	IC50 melanin ([3]; B16 melanoma cells) [µg/mL]	IC50 [3, 10] [µM]	Cell viability [7] [%]	Inhibition Rate (P. acnes growth) [5]	CP/CV value (collagen production %/cell viability %) ([8]; 5 μg/mL)	also measured
CC1CCC2(C(=O)O)CCC3(C)C(=CCC4C5(C)C(CO)=CC(C)(C)C5CCC43C)C2C1(C)O (centres unmarked) [Compound 16, hyptadienic acid]	3.7 ± 3.8	14.7 ± 4.2	28.9 ± 3.2	60.3 ± 6.5	active												CC50 at 72 h [2]: 7.8 µg/mL and 16.5 µM; S.I (selectivity index, CC50 value/IC50 value) ([3]; B16 melanoma cells): 0.8; IC50 ([3]; Mus musculus, B16, read-out: IC50 (melanin synthesis)): 21.6 µM; inhibition at 1 µg/mL [3, 9]: 0.1 ± 4.5%; inhibition at 2.5 µg/mL [3, 9]: 1.9 ± 3.4%; inhibition at 5 µg/mL [3, 9]: 13.4 ± 5.5%; inhibition at 10 µg/mL [3, 9]: 51.8 ± 5%; IC50 ([3]; Mus musculus, B16 melanoma cells, read-out: IC50 melanin): 10.1 µg/mL; viability at 25 μg/ml [4]: 99.9 ± 2.3%; MBC ([5]; Cutibacterium acnes): 200 µg/mL (≈ 425 µM); MIC ([5]; Cutibacterium acnes): 100 µg/mL (≈ 212 µM); inhibition at 100 µg/mL ([5]; Cutibacterium acnes, read-out: Inhibition Rate (P. acnes growth)): 104 ± 3.1%
O=c1c(O)c(-c2ccc(O)c(O)c2)oc2cc(O)cc(O)c12 [Quercetin, reference compound]																	inhibition at 82 µM [6]: 72.5%
C[C@H]1[C@H](C)CC[C@]2(C(=O)O)CC[C@]3(C)C(=CC[C@@H]4[C@@]5(C)CCC(=O)C(C)(C)[C@@H]5CC[C@]43C)[C@H]12 [Compound 13, 3-oxours-12-en-28-oic acid]	39.1 ± 2.6	42.7 ± 2.1	51.5 ± 3.7	80.3 ± 3.0		4.0 (≈ 8.8 µM)	8.9	41.0 ± 2.1	39.7 ± 0.6	45.5 ± 2.7	52.9 ± 0.6	8.1 (≈ 17.8 µM)	18	85.6 ± 4.2	– (no inhibition)	1.2	Inhibition rate (100% − melanin synthesis) ([3]; 0.5 μg/ml): 37.4 ± 1.1%; CP/CV value (collagen production %/cell viability %) ([8]; 1 μg/mL): 1.2; CP/CV value (collagen production %/cell viability %) ([8]; 10 μg/mL): 1.4
C[C@@H]1CC[C@]2(C(=O)O)CC[C@]3(C)C(=CC[C@@H]4[C@@]5(C)C[C@@H](O)[C@H](OC(=O)/C=C\c6ccc(O)cc6)C(C)(C)[C@@H]5CC[C@]43C)[C@@H]2[C@]1(C)O (relative stereo) [Compound 18, 3-O-cis-p-coumaroyl tormentic acid]	7.0 ± 8.8	6.6 ± 11.1	12.6 ± 8.4	42.4 ± 14.9	active	12.6 (≈ 19.8 µM)	19.5	0.0 ± 2.1	0.0 ± 5.3	0.0 ± 3.8	35.6 ± 1.1	> 20.0	> 30.9	104.6 ± 6.7	103.5 ± 2.2%	1.1	Inhibition rate (100% − cell viability) ([1]; 20 μg/ml): 80.1 ± 9.5%; Inhibition rate (100% − melanin synthesis) ([3]; 20 μg/ml): 47.1 ± 6.0%; MBC ([5]; P. acnes, broth microdilution): 200 µg/mL (≈ 315 µM); MIC ([5]; P. acnes, broth microdilution): 100 µg/mL (≈ 158 µM)
